Test results from paper PMC6348446 (Journal of Medicinal Chemistry, 2018).
“And” between values parts separate entries of the source, which are not always exact repeats. Equal values may be shown once.

Legend:
[1] = molecular target: T1, VCB (VHL-ElonginC-ElonginB complex) (Homo sapiens, UniProt P40337); test: ITC, VCB titrated into PROTAC alone (binary); format: binding; settings: 25 °C
T1 construct: His6 (cleaved yes); made in house; host or cells: Escherichia coli BL21(DE3)

[2] = molecular target: T2, VCB:PROTAC:BRD9-BD ternary complex (Homo sapiens, UniProt P40337+Q9H8M2); test: AlphaLISA proximity assay of ternary complex formation; format: binding; settings: for AlphaLISA max intensity: biotinylated VCB 100 nM, His6-BRD9-bromodomain 100 nM
T2 construct: the bromodomain (residues 134–239) for BRD9 (Q9H8M2); made in house; host or cells: Escherichia coli BL21(DE3)
Procedure: All assays were performed at room temperature in 384-well plates with a final assay volume of 25 μL per well, as described previously.[5] All reagents were prepared as 5× stocks diluted in 50 mM HEPES, pH 7.5, 100 mM NaCl, 0.1% (w/v) bovine serum albumin, and 0.02% (w/v) 3-[(cholamidopropyl)dimethylammonio]-1-propanesulfonate (CHAPS). Plates were sealed by transparent film and briefly centrifuged at 100g between additions of reagents. Biotinylated VCB (100 nM final) and His6-BRD9-bromodomain (100 nM final) were incubated with a range of PROTAC concentrations (0.5–2000 nM; two-in-one serial dilution) for 1 h. Streptavidin-coated donor beads and nickel chelate acceptor beads (PerkinElmer) were added to a final concentration of 10 μg mL^–1, and plates were incubated for another hour. Plates were read on a PHERAstar FS (BMG Labtech) using an optic module with an excitation wavelength of 680 nm and emission wavelength of 615 nm. Intensity values were plotted against PROTAC concentration on a log10 scale using GraphPad Prism, version 7. To obtain biotinylated-VCB, protein was mixed with EZ-link NHS-PEG4-biotin (Thermo Scientific) in a 1:1 molar ratio and incubated at room temperature for 1 h. The reaction was quenched using 1 M Tris-HCl, pH 7.5, and unreacted NHS-biotin was removed with a PD-10 MiniTrap desalting column (GE Healthcare) equilibrated with 20 mM HEPES, pH 7.5, 150 mM NaCl, and 1 mM DTT.

[3] = molecular target: T3, VCB and BRD9-BD (ternary complex) (Homo sapiens, UniProt P40337+Q9H8M2); test: ITC, VCB titrated into BRD9-BD:PROTAC binary complex (ternary); format: binding; settings: 25 °C; for N (stoichiometry), VCB into BRD9-BD:PROTAC complex / ΔG, VCB into BRD9-BD:PROTAC complex / ΔH, VCB into BRD9-BD:PROTAC complex / –TΔS, VCB into BRD9-BD:PROTAC complex: ITC; for cooperativity α (ITC): binary versus ternary VCB binding
T3 construct: the bromodomain (residues 134–239) for BRD9 (Q9H8M2); His6 (cleaved yes); made in house; host or cells: Escherichia coli BL21(DE3)

Plasma stability, human = format: in vitro ADME; settings: 10 µM compound, 37 °C; for half-life at 10 µM: human, plasma, pH 7.4, read-out: Plasma stability T 1/2, Human
Procedure: Test compound (10 µM) was incubated in pre-warmed plasma at 37 ᵒC (that is buffered to pH 7.4 in ratio of 70:30 plasma to buffer). Immediately, at time zero, then at 30, 60, 120, and 180 min, a 50 µL aliquot of the incubation mixture was removed and mixed with 200 µL acetonitrile containing Donepezil as the internal standard (50 ng/ml) to stop the reaction. The samples were centrifuged to sediment the precipitated protein and the plates then sealed prior to UPLC-MS/MS analysis using a Xevo TQ-S Micro (Waters Corporation, USA).
XLfit (IDBS, UK) was used to calculate the exponential decay and consequently the rate constant (k) from the ratio of peak area of test compound to internal standard at each time point. The half-life was calculated for each test compound from the rate by using the […]
Parallel Artificial Membrane Permeability Assay (PAMPA)
PAMPA was performed using a 96-well pre-coated BD Gentest™ PAMPA plate (BD Biosciences, U.K.). Each well was divided into two chambers; donor and acceptor, separated by a lipid-oil-lipid tri-layer constructed in a porous filter. The effective permeability, Pe, of the compound was measured at pH 7.4. Stock solutions (5 mM) of the compound were prepared in DMSO. The compound was then further diluted to 10 µM in phosphate buffered […]
saline at pH 7.4. […] The compound […]
dissolved in phosphate buffered saline was then added to the donor side of the membrane and phosphate buffered saline without compound was added to the acceptor side. The PAMPA plate was left at room temperature for 5 h. After which time, an aliquot (100 µL) was then

T1 sequence (P40337 54-213 limits assumed): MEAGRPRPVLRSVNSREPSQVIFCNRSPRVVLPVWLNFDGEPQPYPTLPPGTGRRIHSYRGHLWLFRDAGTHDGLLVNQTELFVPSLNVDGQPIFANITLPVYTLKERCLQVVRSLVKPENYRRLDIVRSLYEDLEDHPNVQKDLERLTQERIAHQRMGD
T1 sequence (Q15369 17-112 partner limits assumed): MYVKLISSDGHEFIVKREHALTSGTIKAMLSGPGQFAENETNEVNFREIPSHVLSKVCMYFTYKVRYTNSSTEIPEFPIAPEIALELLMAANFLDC
T1 sequence (Q15370 1-104 partner limits assumed): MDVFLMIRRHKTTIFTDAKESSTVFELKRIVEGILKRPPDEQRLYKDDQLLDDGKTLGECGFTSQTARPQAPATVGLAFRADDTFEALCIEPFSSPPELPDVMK
T2 sequence (P40337 54-213 limits assumed): as the sequence (P40337 54-213 limits assumed) above
T2 sequence (Q15369 17-112 partner limits assumed): as the sequence (Q15369 17-112 partner limits assumed) above
T2 sequence (Q15370 1-104 partner limits assumed): as the sequence (Q15370 1-104 partner limits assumed) above
T2 sequence (Q9H8M2 134-239 limits assumed): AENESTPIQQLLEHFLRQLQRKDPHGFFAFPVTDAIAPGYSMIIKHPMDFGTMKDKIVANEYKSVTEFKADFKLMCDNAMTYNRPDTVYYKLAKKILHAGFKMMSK
T3 sequence (P40337 54-213 limits assumed): as the sequence (P40337 54-213 limits assumed) above
T3 sequence (Q15369 17-112 partner limits assumed): as the sequence (Q15369 17-112 partner limits assumed) above
T3 sequence (Q15370 1-104 partner limits assumed): as the sequence (Q15370 1-104 partner limits assumed) above
T3 sequence (Q9H8M2 134-239 limits assumed): as the sequence (Q9H8M2 134-239 limits assumed) above

| N (stoichiometry), VCB into PROTAC alone [1] | ΔG, VCB into PROTAC alone [1] | ΔH, VCB into PROTAC alone [1] | –TΔS, VCB into PROTAC alone [1] | increase in the maximum α intensity compared to VCB:5:BRD9-BD ([2]; AlphaLISA) [%] | AlphaLISA max intensity [2] | N (stoichiometry), VCB into BRD9-BD:PROTAC complex [3] | ΔG, VCB into BRD9-BD:PROTAC complex [3] | ΔH, VCB into BRD9-BD:PROTAC complex [3] | –TΔS, VCB into BRD9-BD:PROTAC complex [3] | cooperativity α (ITC) [3] | Plasma stability T 1/2, Human (Plasma stability, human) | half-life at 10 µM (Plasma stability, human) [min] | cooperativity α (ITC) ([3]; listed as VZ185) | Compound |
| --- | --- | --- | --- | --- | --- | --- | --- | --- | --- | --- | --- | --- | --- | --- |
| 0.99 | –9.64 ± 0.03 kcal/mol | –6.56 ± 0.09 kcal/mol | –3.1 ± 0.1 kcal/mol | 50 | 1.56 × 10^6 | 0.99 | –9.7 ± 0.2 kcal/mol | –6.4 ± 0.2 kcal/mol | –3.3 ± 0.2 kcal/mol | 1 and 1.05 | – | – | – | COc1cc(-c2cn(C)c(=O)c3cnccc23)cc(OC)c1CN1CCN(CCOCCOCCOc2cc(-c3scnc3C)ccc2CNC(=O)[C@@H]2C[C@@H](O)CN2C(=O)[C@@H](NC(=O)C2(F)CC2)C(C)(C)C)CC1 [Compound 26, (2S,4R)-N-(2-(2-(2-(2-(4-(2,6-Dimethoxy-4-(2-methyl-1-oxo-1,2-dihydro-2,7-naphthyridin-4-yl)benzyl)piperazin-1-yl)ethoxy)ethoxy)ethoxy)-4-(4-methylthiazol-5-yl)benzyl)-1-((S)-2-(1-fluorocyclopropane-1-carboxamido)-3,3-dimethylbutanoyl)-4-hydroxypyrrolidine-2-carboxamide] |
| 0.60 ± 0.01 | –10.2 ± 0.1 kcal/mol | –15.2 ± 0.1 kcal/mol | – | – | 1.0 × 10^6 | 0.75 ± 0.05 | –9.7 ± 0.1 kcal/mol | –6.4 ± 0.1 kcal/mol | –3.3 ± 0.1 kcal/mol | – | – | – | – | COc1cc(-c2cn(C)c(=O)c3cnccc23)cc(OC)c1CN1CCN(CCOCCOCC(=O)N[C@H](C(=O)N2C[C@H](O)C[C@H]2C(=O)NCc2ccc(-c3scnc3C)cc2)C(C)(C)C)CC1 [Compound 5, (2S,4R)-1-((S)-2-(2-(2-(2-(4-(2,6-Dimethoxy-4-(2-methyl-1-oxo-1,2-dihydro-2,7-naphthyridin-4-yl)benzyl)piperazin-1-yl)ethoxy)ethoxy)acetamido)-3,3-dimethylbutanoyl)-4-hydroxy-N-(4-(4-methylthiazol-5-yl)benzyl)pyrrolidine-2-carboxamide] |
| 0.73 | –10.4 ± 0.2 kcal/mol | –7.04 ± 0.08 kcal/mol | –3.4 ± 0.1 kcal/mol | – | 1.47 × 10^6 | 0.73 | –10.33 ± 0.08 kcal/mol | –5.1 ± 0.1 kcal/mol | –5.3 ± 0.1 kcal/mol | – | high stabilities | > 180 | 0.97 and 0.96 | COc1cc(-c2cn(C)c(=O)c3cnccc23)cc(OC)c1CN1CCN(CCCCCOc2cc(-c3scnc3C)ccc2CNC(=O)[C@@H]2C[C@@H](O)CN2C(=O)[C@@H](NC(=O)C2(F)CC2)C(C)(C)C)CC1 [Compound 51, (2S,4R)-N-(2-((5-(4-(2,6-Dimethoxy-4-(2-methyl-1-oxo-1,2-dihydro-2,7-naphthyridin-4-yl)benzyl)piperazin-1-yl)pentyl)oxy)-4-(4-methylthiazol-5-yl)benzyl)-1-((S)-2-(1-fluorocyclopropane-1-carboxamido)-3,3-dimethylbutanoyl)-4-hydroxypyrrolidine-2-carboxamide] |
| – | – | – | – | – | – | – | – | – | – | – | – | > 180 | – | COc1cc(-c2cn(C)c(=O)c3cnccc23)cc(OC)c1CN1CCN(CCCCCOc2cc(-c3scnc3C)ccc2CNC(=O)[C@@H]2C[C@H](O)CN2C(=O)[C@@H](NC(=O)C2(F)CC2)C(C)(C)C)CC1 [cisVZ185] |
